Test results reported in publication PMC4760439, “Glicentin‐related pancreatic polypeptide inhibits glucose‐stimulated insulin secretion from the isolated pancreas of adult male rats” (Physiological Reports, 2015).

Tests used:
[1] = tested on: canine pancreas; details: cited from earlier work
Excerpt: However, we know of only one study reporting the effects of GRPP on GSIS. […] The precise experimental conditions such as amount of glucose and experimental model used may have influences on the different outcomes; however, the reason for the opposing actions of GRPP between these ...

[2] = tested on: perfused rat liver; experiment: Isolated perfused rat liver: glucose output, lactate output, portal pressure; set-up: species or system Male Sprague‐Dawley rat; details: 100 pmol g^−1 min^−1, 30–60 min, all groups
Experimental: All studies were performed under approval of the University of Auckland Animal Ethics Committee and were consistent with the ARRIVE guidelines (Kilkenny et al. 2012). Male Sprague‐Dawley rats (220–300 g) were obtained from a breeding colony in the Integrated Physiology Unit, School of Biological Sciences at the University of Auckland. Animals were housed in standard environmental conditions under a 12‐hour light/dark cycle and a temperature of 20 ± 1°C. They were maintained on Teklad TB 2018 (Harlan, UK) rat chow and tap water ad libitum.
Under general anesthesia (isoflurane 2–5%; 2 L min^−1 O2 via nasal cone), nonfasted rats underwent laparotomy between 8:00 and 9:00 AM on the experimental day. The liver was removed and quickly connected to a custom‐made, temperature‐controlled, organ perfusion system, whereby it was perfused (in nonrecirculating mode) in a manner similar to that reported previously (Englisch et al. 2000; Whiting et al. 2013). Livers were perfused at a rate of 2 mL g^−1 min^−1 with perfusion media containing final concentrations (in mmol L^−1): NaCl, 128; NaHCO3, 23.9; KCl, 6.0; CaCl2, 2.4; MgSO4, 1.18; D‐glucose, 5; 3‐(‐N‐morpholino)propane sulfonate, 1.29; with fatty‐acid‐free BSA, 0.5% (w/v) at pH 7.4 gassed with O2:CO2 95:5% (v/v) at 37°C. Each liver was stabilized for 40 min: thereafter, hormone‐containing solutions or vehicle (buffer only) was delivered via a side‐arm infusion. Hormones were also investigated with regard to their ability to attenuate epinephrine‐stimulated hepatic glucose output (Epinephrine, Sigma‐Aldrich, St. Louis, MO). Epinephrine was added 30 min after the addition of hormones was commenced.
Measurement of organ perfusion parameters
Glucose and lactate concentrations were measured in both organ preparations using a YSI2300 Stat glucose and lactate analyzer (Yellow Springs, Ohio). Portal pressure was measured in isolated‐perfused liver preparations in mmH2O via a T‐tube located 10 cm upstream from the preparation.
Maximum pancreatic first‐phase insulin secretion in the presence of hormone infusion was contrasted with corresponding control values by unpaired Welch's t‐tests for preplanned comparisons, to allow for unequal variance between groups. Linear mixed‐effects models were fitted by restricted maximum likelihood (LME‐REML) to data obtained from each indicated phase of isolated perfused–organs studies, using S‐PLUS version 8.2 (TIBCO, Spotfire). Calculated P‐values <0.05 are presented in the article and reflect the likelihood ratio between two models, the effect in question (treatment, time, or treatment:time) against the model without the effect in question. Insulin secreted from isolated islets was expressed as a percentage of insulin content and compared using one‐way ANOVA (GraphPad Prism version 6.0: GraphPad Software Inc., San Diego, CA). Cyclic AMP data have been normalized to the response obtained to forskolin and fitted to obtain concentration–response curves using a three‐parameter logistic equation (GraphPad Prism version 6.0: GraphPad Software Inc., San Diego, CA): pEC50 values were obtained from the concentration–response curves and compared using one‐way ANOVA. All data are presented as mean ± SEM of three to four independent experiments.
Figure 2 Effect of rGRPP and rGRPP‐LP on glucose output, lactate output, and portal pressure in the isolated perfused rat liver. Livers from Sprague‐Dawley rats were isolated and perfused with rGRPP (left panels: 2.3 or 230 pmol g^−1 min^−1, n = 5 and n = 3, respectively), rGRPP‐LP (right panels: 2.3 or 230 pmol g^−1 min^−1, n = 5 and n = 3), or vehicle (all panels: control, n = 5). Livers were perfused with hormones or vehicle from 0 to 60 min with 0–30 min as the basal period.

human glicentin 12–69: encompasses both GRPP and glucagon sequences (SFSASQADPLSDPDQMNEDKRHSQGTFTSDYSKYLDSRRAQDFVQWLMNTKRNRNNIA; Glicentin; UniProt P01275 32-89, looked up, fragment)
GSIS and glucagon secretion, perfused canine pancreas ([1]; ref Yanaihara et al. 1985): enhanced GSIS and inhibited glucagon secretion in the perfused canine pancreas

human glicentin 1–16: human glicentin 1–16, literature peptide (RSLQDTEEKSRSFSAS; Glicentin; UniProt P01275 21-36, looked up, fragment)
Plasma insulin and glucagon, canine pancreas ([1]; local circulation preparation of the canine pancreas, ref Ohneda and Ohneda 1988): slight increases in plasma insulin and decreases in plasma glucagon

CNC[C@H](O)c1ccc(O)c(O)c1 [epinephrine, reference compound]
Glucose output, effect of epinephrine [2]: evoked an increase in glucose output in all groups | Lactate release, effect of epinephrine [2]: expected elevation of lactate release | Portal pressure, effect of epinephrine [2]: expected elevation of lactate release and portal pressure

porcine GRPP: porcine GRPP, literature peptide (RSLQNTEEKSRSFPAPQTDPLDDPDQMTED; Glicentin-related polypeptide; UniProt P01274 21-50, looked up)
Insulin and glucagon secretion, canine pancreas ([1]; ref Ohneda and Ohneda 1988): insulin was possibly increased and glucagon decreased
